Test results from patent publication US20220143183A1, “PHOTOSWITCHABLE PROTACS AND SYNTHESIS AND USES THEREOF” (New York University, priority 2019, published 2022).

How the values were obtained:
[1] = tested on: BRD2-4; experiment: Western blot of BET proteins in RS4;11 cells, results stated for BRD2-4 together; type: cell-based, human
Protocol: (§1) Next, the light dependence of targeted protein degradation was analyzed in RS4;11 cells by western blot analysis of the BET proteins BRD2-4 (FIG. 5). To this end, cells were treated with increasing concentrations of our lead compound, PHOTAC-I-3, for 4 h and pulse-irradiated with 390 nm light (100 ms every 10 s). […] The cereblon-dependent degradation was confirmed by a competition experiment (FIG. 5E), and further validated by siRNA knockdown of cereblon (FIG. 13).
The slight effect on c-MYC can be explained by inhibition of BRD4 with the (+)-JQ1 derivative PHOTAC-I-3 in the absence of targeted degradation.
(§2) Cells were incubated with different concentrations of selected compounds. They were placed in a light-proof box and preirradiated for 1 min at 390 nm followed by 100 ms pulses every 10 s or were kept in the dark for 4 h.
Cultured cells were collected by centrifugation and washed twice with cold PBS. The supernatant was removed and each cell pellet was lysed in 100 μL NP40-Cell-Lysis Buffer+0.1% SDS+1 mM PMSF+ protease inhibitor cocktail (Sigma Aldrich) for 30 min on ice, with vortexing at 10-minute intervals. Afterwards, cells were centrifuged at 13.000 rpm for 10 min at 4° C. Samples were stored on ice and the supernatant was collected for protein concentration determination using a Thermofisher Scientific Pierce™ Coomassie Plus (Bradford) Assay Kit. […]

[2] = molecular target: T1, BRD3 (Homo sapiens, UniProt Q15059); experiment: Western blot of BRD3 levels in RS4;11 cells; type: cell-based
T1 construct: endogenous in cells; host or cells: RS4;11 (ATCC CRL-1873)
T1 sequence (Q15059 whole entry): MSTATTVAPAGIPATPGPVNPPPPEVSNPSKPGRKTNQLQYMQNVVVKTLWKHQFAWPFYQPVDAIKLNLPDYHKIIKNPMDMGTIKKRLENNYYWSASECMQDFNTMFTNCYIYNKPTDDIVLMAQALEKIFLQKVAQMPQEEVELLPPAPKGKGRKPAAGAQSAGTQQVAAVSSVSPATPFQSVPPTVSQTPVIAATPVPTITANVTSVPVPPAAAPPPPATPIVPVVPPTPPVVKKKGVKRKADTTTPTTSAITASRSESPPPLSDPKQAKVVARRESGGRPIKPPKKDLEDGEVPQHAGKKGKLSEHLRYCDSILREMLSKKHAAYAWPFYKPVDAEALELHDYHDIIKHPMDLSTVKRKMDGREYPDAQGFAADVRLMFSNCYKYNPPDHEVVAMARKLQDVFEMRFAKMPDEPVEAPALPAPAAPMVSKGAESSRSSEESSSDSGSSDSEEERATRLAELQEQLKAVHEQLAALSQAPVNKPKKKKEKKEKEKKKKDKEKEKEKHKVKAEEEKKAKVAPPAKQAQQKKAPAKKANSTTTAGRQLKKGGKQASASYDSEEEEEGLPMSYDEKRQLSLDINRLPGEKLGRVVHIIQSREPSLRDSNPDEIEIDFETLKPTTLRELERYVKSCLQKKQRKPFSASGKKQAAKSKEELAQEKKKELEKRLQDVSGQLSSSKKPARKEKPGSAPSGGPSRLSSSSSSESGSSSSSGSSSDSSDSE
Protocol: as §1, §2
Cultured cells were collected by centrifugation and washed twice with cold PBS. The supernatant was removed and each cell pellet was lysed in 100 μL NP40-Cell-Lysis Buffer+0.1% SDS+1 mM PMSF+ protease inhibitor cocktail (Sigma Aldrich) for 30 min on ice, with vortexing at 10-minute intervals. Afterwards, cells were centrifuged at 13.000 rpm for 10 min at 4° C. Samples were stored on ice and the supernatant was collected for protein concentration determination using a Thermofisher Scientific Pierce™ Coomassie Plus (Bradford) Assay Kit.
The samples were diluted each with 5 μL Laemmli sample buffer Invitrogen (NuPAGE LDS Sample Buffer 4×) and 1 μL DTT, heated at 95° C. for 5 min. […]

[3] = molecular target: BRD4 (Homo sapiens, UniProt O60885); experiment: Immunoblot of BRD4 degradation in MB-MDA-468 cells; type: cell-based; parameters: Immunoblot analysis after treatment of MB-MDA-231 cells with PHOTAC-I-3 for 18 h at different concentrations; endogenous in cells; host or cells: MB-MDA-231 (A10) and MB-MDA-468 (A11) (so in the source); conditions: 18 h, 390 nm pulses vs dark
Protocol: FIG. 10 depicts an immunoblot analysis of PHOTAC-I-3 A) Immunoblot analysis after treatment of MB-MDA-231 cells with PHOTAC-I-3 for 18 h at different concentrations. Cells were either irradiated with 100 ms pulses of 390 nm light every 10 s (left) or kept the dark (right). B) Immunoblot analysis after treatment of MB-MDA-468 cells with PHOTAC-I-3 for 18 h at different concentrations. Cells were either irradiated with 100 ms pulses of 390 nm light every 10 s (left) or kept the dark (right). (MWM, molecular weight marker). C) Immunoblot of BRD4 degradation in RS4;11 cells, promoted by PHOTAC-I-3 (300 nM) after 1 minute of irradiation (100 ms every 10 s), highlighting sustained degradation at the applied dosage.
Photoactivatable degraders and inhibitors of BRD4, c-MYC levels were also affected.

[4] = UV-Vis photoswitching and photostationary states (PSS); type: physicochemical
Text: The photoswitching and thermal relaxation properties of one of the lead compounds, PHOTAC-I-3, is shown in FIG. 3A-E. The optimal wavelength to switch to the cis isomer is 390 nm but similar photostationary states (PSS) can be obtained between 380 and 400 nm (FIG. 3C). At 390 nm a PSS of >90% cis could be obtained. Rapid cis to trans isomerization could be achieved by irradiation with wavelengths >450 nm, achieving PSS of ca >70% trans (FIG. 3C). […] Multiple cycles of photochemical isomerization are possible, in keeping with the fatigue-resistance of azobenzene photoswitches (FIG. 3E).
UV-Vis spectrometry was performed on a Varian Cary 60 UV-Visible Spectrophotometer using disposable BRAND UV-Cuvette Disposable Spectrophotometer/Photometer Ultra-Micro Cuvettes, BrandTech (10 mm light path), an Agilent Technologies PCB 1500 Water Peltier system for temperature control and samples were irradiated with a cairn research Optoscan Monochromator with Optosource High Intensity Arc Lamp equipped with a 75 W UXL-S50A lamp from USHIO Inc. Japan and set to 15 nm full width at half maximum.

COc1cc(/N=N/c2cccc3c2CN(C2CCC(=O)NC2=O)C3=O)cc(OC)c1OCC(=O)NCCCCNC(=O)C[C@@H]1N=C(c2ccc(Cl)cc2)c2c(sc(C)c2C)-n2c(C)nnc21 (stereo partly drawn) [PHOTAC-I-3, 2-((S)-4-(4-chlorophenyl)-2,3,9-trimethyl-6H-thieno[3,2-f][1,2,4]triazolo[4,3-a][1,4]diazepin-6-yl)-N-(4-(2-(4-((E)-(2-(2,6-dioxopiperidin-3-yl)-1-oxoisoindolin-4-yl)diazenyl)-2,6-dimethoxyphenoxy)acetamido)butyl)acetamide]
BRD2-4 levels with CRL inhibitor MLN4924 ([1]; 1 μM together with MLN4924 (2.5 μM), 390 nm irradiation): rescued BRD2-4 levels
BRD levels in the dark, time course ([1]; 1 μM, in the dark): no effect on BRD levels
exposure time after which BRD3 is largely absent ([2]; 1 μM, 390 nm pulse irradiation): 1.5 h
BRD3 levels ([2]; 4 h, irradiated with violet light (390 nm)): significantly reduced
BRD4 degradation [3]: light-dependent degradation of BRD4
optimal wavelength to switch to the cis isomer [4]: 390 nm
photostationary state (PSS), cis fraction ([4]; at 390 nm): > 90%
photostationary state (PSS), trans fraction ([4]; irradiation with wavelengths >450 nm): > 70%
